Data: PubChem BioAssay AID1996
Converted amounts (≈) assume the structure as drawn.

settings: buffer; pH 7.4; 200.0 µM

Structure (SMILES)	solubility kinetic [µg/mL]
Cc1ccsc1C(=O)OCC(=O)NC1CCCC(C)C1C (centres undefined)	11.3 (≈ 36.5 µM)
Cc1ccc(CC(=O)NC2CCCc3ccccc32)cc1C (centres undefined)	3.2 (≈ 10.9 µM)
CCOC(=O)c1[nH]c(C)c(C(=O)OCc2ccc(C)cc2)c1C	1.1 (≈ 3.49 µM)
Cc1c(C(=O)NCc2ccco2)oc2c(F)cccc12	8.1 (≈ 29.6 µM)
COc1ccccc1C(C[N+](=O)[O-])c1c(N)n(C)c(=O)n(C)c1=O (centres undefined)	> 50.1
CCN1CCN(CCC(=O)Nc2ccc(C)cc2)CC1.Cl	> 46.8
CCOc1ccc(-c2c(C)sc3nc[nH]c(=O)c23)cc1	24.6 (≈ 85.9 µM)
CCOc1ccc2nc(N/C(N)=N/S(C)(=O)=O)nc(C)c2c1	2.3 (≈ 7.11 µM)
O=C(Nc1ccc2c(c1)OCCO2)c1cccc(Cl)c1Cl	35.5 (≈ 110 µM)
Cc1cc(C)c(C)c(OCC(=O)O/N=C(\N)c2ccncc2)c1	28.5 (≈ 91 µM)
COc1ccc2oc3c(c2c1)NC(=O)CN=C3c1ccccc1	3.1 (≈ 10.1 µM)
O=C(NCc1ccc(Cl)cc1)c1ccc2ccccc2n1	3.4 (≈ 11.5 µM)
Cc1cc(Cl)c2oc(C(=O)N3CCC(O)(c4ccccc4)CC3)c(C)c2c1	2.2 (≈ 5.73 µM)
COc1ccc(NC(=O)COC(=O)Cc2c[nH]c3ccccc23)cc1Cl	4.1 (≈ 11 µM)
CN(C(=O)CO/N=C/c1ccc(Cl)cc1)c1ccccc1	44.6 (≈ 147 µM)
O=C(NC1CCCCC1)N1CCN(c2ccc([N+](=O)[O-])cc2)CC1	12.7 (≈ 38.2 µM)
CS(=O)(=O)c1ccc(Cl)c(NC(=O)CCNC(=O)c2ccco2)c1	49.9 (≈ 135 µM)
O=C(O)COCC(=O)NCc1csc2ccccc12	38.9 (≈ 139 µM)
O=C(CCl)NCc1cc(-c2ccc(Cl)cc2)no1	13.2 (≈ 46.3 µM)
COc1ccc(NC(=S)NCc2ccccn2)cc1OC	> 45.5

Structure (SMILES)	solubility kinetic [µg/mL]
CC1CN(C(=S)Nc2cccc(F)c2)CC(C)O1 (centres undefined)	40.2 (≈ 150 µM)
Cc1cc(NC(=O)COc2c(C)cccc2C)no1	6.9 (≈ 26.5 µM)
N#Cc1ccc(C2N=C(c3ccccc3)NO2)cc1 (centres undefined)	15.3 (≈ 61.4 µM)
CC(C)CCNC(=O)NC(=O)CSc1ncccn1	28.9 (≈ 102 µM)
CCc1ccc(C(=O)CN2C(=O)NC(C)(c3ccc(C)cc3)C2=O)cc1 (centres undefined)	2.1 (≈ 5.99 µM)
Nc1cc(S(=O)(=O)N2CCCCC2)ccc1Oc1ccccc1	10.8 (≈ 32.5 µM)
Cc1cccc(C(=O)N/C(=C\c2ccco2)C(=O)N2CCCC2)c1	> 48.7
Cc1ccc(NC(=O)CN(C)C(=S)NC2CC2)cc1	> 41.6
CCOC(=O)Cc1csc(NC(=O)CCc2ccccc2)n1	41 (≈ 129 µM)
CCSC1=C(C#N)C(c2ccc(C)o2)CC(=O)N1 (centres undefined)	> 39.3
CC(=O)c1cnc(Nc2cccc(C)c2)s1	13.7 (≈ 59 µM)
Cc1cc(C)cc(NC(=S)N(CCN(C)C)Cc2cccs2)c1	43.7 (≈ 126 µM)
Cc1cc(C(=O)OCC(=O)Nc2ccccc2C(F)(F)F)on1	> 49.2
Cc1cc(=O)oc2cc(NC(=O)c3cccc(S(C)(=O)=O)c3)ccc12	3.5 (≈ 9.79 µM)
CC(NCCC1(Cc2ccccc2Cl)CCOC(C)(C)C1)c1cccs1 (centres undefined)	46.3 (≈ 118 µM)
Cc1cc(N/N=C/c2ccc(O)cc2O)nc(N2CCOCC2)n1	> 49.4
COc1ccc2cc(CCNC(=O)CCc3ccccc3)c(=O)[nH]c2c1	4.8 (≈ 13.7 µM)
CCOc1ccc(S(=O)(=O)NC2CCCC2)cc1C	> 42.5
CC1CCN(C2=NC(=O)/C(=C/c3cccc(O)c3)S2)CC1	2.3 (≈ 7.61 µM)
O=C1CC(C(=O)N2CCCc3ccccc32)CN1c1ccc(F)cc1 (centres undefined)	46.5 (≈ 137 µM)

Structure (SMILES)	solubility kinetic [µg/mL]
COc1ccc(C2(CNC(=O)c3cccs3)CCOCC2)cc1	48.6 (≈ 147 µM)
COc1ccc(C(=O)NCCc2ccccc2)cc1OC	40.1 (≈ 141 µM)
COc1nc(OC)nc(N2CCC(C(=O)NC3CC3)CC2)n1	37 (≈ 120 µM)
OC1(C(F)(F)F)CC(c2ccc3ccccc3c2)=NO1 (centres undefined)	> 42.2
COC(=O)c1sccc1NC(=O)c1ccc(C)cc1	< 0.6
Cc1cccc(NC(=O)CSc2nc3ccccc3c(=O)n2CC2CCCO2)c1 (centres undefined)	4.2 (≈ 10.3 µM)
O=C(Nc1cccc(C(=O)O)c1)Nc1ccc2c(c1)OCO2	> 45
COc1ccc(N(CC(=O)N2CCOCC2)S(C)(=O)=O)cc1Cl	> 54.4
Cc1ccc(S(=O)(=O)N2CCC[C@H]2C(=O)Nc2ccccc2Cl)cc1	17.4 (≈ 45.9 µM)
CCCCC(=O)NC(=S)Nc1cc([N+](=O)[O-])ccc1OC	0.7 (≈ 2.25 µM)
Cc1nc(/C(N)=N/OC(=O)Cc2ccccc2)no1	24.4 (≈ 93.8 µM)
COCCCNC(=O)c1cc(C(=O)Cc2ccccc2)c[nH]1	> 45.1
COC(=O)Cc1ccc(NC(=S)NC2CC2)cc1	> 39.7
Cn1c(C2CCCCC2)nc2cc(N)ccc21	> 34.4
N#Cc1ccc(COC(=O)c2cnc3ccccc3n2)cc1	6.1 (≈ 21.1 µM)
Cc1ccc(C(=O)Nc2ccc(C(=O)N3CCCCC3)cc2)o1	> 46.9
CCN1C(=O)C(=O)N(Cc2ccc(OC)c(F)c2)C1=O	40.4 (≈ 144 µM)
CN(C)C/C=C/C(O)(c1ccccc1)c1ccccc1	> 40.1
O=C(Cc1ccccc1Cl)N1CCN(c2ccccn2)CC1	> 47.4
